ChEMBL document CHEMBL4680201, “Design, synthesis, and pharmacological evaluation of 4- or 6-phenyl-pyrimidine derivatives as novel and selective Janus kinase 3 inhibitors” (Eur J Med Chem, 2020)
Active and inactive are the calls of the source. The calls are words filed in the database; no cut-off is given here.

Key:
[1] = molecular target: Tyrosine-protein kinase JAK1 (Homo sapiens, UniProt P23458); experiment: Inhibition of recombinant human GST-tagged JAK1 cytoplasmic domain (866 to 1154 residues) expressed in baculovirus expression system using TK-substrate-biotin preincubated for 5 mins followed by substrate addition and measured after 30 mins by HTRF assay
[2] = molecular target: T1, Tyrosine-protein kinase JAK3 (Homo sapiens, UniProt P52333)
T1 sequence (P52333 whole entry): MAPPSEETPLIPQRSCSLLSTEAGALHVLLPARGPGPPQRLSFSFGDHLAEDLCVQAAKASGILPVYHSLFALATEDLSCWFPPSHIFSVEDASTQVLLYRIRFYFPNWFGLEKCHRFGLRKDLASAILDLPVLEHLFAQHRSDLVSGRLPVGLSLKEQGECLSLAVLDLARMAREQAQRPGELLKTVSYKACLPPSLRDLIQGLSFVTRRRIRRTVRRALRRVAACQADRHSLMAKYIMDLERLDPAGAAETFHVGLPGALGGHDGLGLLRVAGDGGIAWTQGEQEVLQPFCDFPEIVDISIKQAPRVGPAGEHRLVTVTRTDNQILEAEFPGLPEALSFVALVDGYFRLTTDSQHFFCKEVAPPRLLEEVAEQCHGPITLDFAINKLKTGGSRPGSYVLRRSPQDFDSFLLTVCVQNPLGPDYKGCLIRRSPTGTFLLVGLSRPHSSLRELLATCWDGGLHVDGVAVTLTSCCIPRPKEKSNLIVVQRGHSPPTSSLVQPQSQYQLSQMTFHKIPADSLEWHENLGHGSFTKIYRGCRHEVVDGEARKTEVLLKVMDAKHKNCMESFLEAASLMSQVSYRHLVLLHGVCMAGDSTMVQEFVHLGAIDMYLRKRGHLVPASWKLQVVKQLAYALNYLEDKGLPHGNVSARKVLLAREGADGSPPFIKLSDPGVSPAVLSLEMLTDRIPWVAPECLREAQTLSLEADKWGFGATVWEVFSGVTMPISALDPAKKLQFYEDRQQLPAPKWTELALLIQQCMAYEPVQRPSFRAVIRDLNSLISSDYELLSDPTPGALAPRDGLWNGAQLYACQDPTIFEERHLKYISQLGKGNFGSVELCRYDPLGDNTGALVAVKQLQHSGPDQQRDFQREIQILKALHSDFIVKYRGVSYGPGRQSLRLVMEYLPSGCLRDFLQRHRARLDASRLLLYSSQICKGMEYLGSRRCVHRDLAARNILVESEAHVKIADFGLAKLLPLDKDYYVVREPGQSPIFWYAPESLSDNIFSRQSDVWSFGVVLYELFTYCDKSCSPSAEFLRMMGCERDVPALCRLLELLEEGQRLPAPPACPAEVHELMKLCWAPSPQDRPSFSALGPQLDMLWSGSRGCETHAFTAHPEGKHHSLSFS

[3] = molecular target: Non-receptor tyrosine-protein kinase TYK2 (Homo sapiens, UniProt P29597); experiment: Inhibition of recombinant human N-terminal GST-tagged TYK2 cytoplasmic domain (833 to 1187 residues) expressed in baculovirus expression system using TK-substrate-biotin preincubated for 5 mins followed by substrate addition and measured after 30 mins by HTRF assay
[4] = molecular target: Tyrosine-protein kinase JAK2 (Homo sapiens, UniProt O60674); assay type: ADME
[5] = molecular target: T2, Tyrosine-protein kinase JAK3 (Mus musculus) (UniProt Q62137); experiment: Inhibition of JAK3 in anti-CD3/-CD28 coated mouse T cells assessed as reduction in IL15-induced STAT5 phosphorylation at 10 uM preincubated for 1 hr followed by […] and measured after 30 mins by Western blot analysis; details: T cell
T2 sequence (whole entry): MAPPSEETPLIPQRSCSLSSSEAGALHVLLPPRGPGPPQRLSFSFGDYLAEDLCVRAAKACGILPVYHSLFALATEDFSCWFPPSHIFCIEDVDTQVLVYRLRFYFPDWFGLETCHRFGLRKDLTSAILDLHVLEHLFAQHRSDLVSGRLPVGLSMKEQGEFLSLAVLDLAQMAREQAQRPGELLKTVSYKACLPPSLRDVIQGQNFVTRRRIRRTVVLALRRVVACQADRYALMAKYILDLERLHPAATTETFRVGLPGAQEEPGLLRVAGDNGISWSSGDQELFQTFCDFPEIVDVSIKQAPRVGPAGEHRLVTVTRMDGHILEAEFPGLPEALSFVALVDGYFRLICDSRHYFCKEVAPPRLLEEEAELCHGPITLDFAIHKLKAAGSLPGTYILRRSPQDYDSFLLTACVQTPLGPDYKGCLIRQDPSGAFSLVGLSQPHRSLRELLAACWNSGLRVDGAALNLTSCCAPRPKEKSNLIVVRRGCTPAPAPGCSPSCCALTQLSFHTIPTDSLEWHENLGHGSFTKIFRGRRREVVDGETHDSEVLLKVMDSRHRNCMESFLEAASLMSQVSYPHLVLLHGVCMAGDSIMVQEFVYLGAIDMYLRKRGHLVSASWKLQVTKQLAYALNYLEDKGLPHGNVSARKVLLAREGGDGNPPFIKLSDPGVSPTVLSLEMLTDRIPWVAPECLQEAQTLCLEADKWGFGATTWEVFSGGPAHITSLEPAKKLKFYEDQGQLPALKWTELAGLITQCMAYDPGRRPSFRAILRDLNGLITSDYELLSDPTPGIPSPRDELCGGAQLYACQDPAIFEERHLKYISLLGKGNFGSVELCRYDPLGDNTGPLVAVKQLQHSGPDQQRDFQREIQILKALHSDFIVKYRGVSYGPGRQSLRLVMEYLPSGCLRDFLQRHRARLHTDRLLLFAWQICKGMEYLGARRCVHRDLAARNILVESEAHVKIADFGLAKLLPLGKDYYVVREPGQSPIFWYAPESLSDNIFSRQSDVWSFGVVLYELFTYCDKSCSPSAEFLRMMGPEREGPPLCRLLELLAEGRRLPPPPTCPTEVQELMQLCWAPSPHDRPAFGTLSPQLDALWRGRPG

[6] = molecular target: T2, Tyrosine-protein kinase JAK3 (Mus musculus); experiment: Inhibition of JAK3 in anti-CD3/-CD28 coated mouse T cells assessed as reduction in IL2-induced STAT5 phosphorylation at 10 uM preincubated for 1 hr followed by IL2 stimulation and measured after 30 mins by Western blot analysis; details: T cell
[7] = Cytotoxicity against resting mouse T cells assessed as reduction in cell viability at 10 uM measured after 72 hrs by MTS assay; assay type: cell-based
[8] = Cytotoxicity against IL-4-treated mouse T cells assessed as reduction in cell viability at 10 uM measured after 72 hrs by MTS assay; assay type: cell-based
[9] = system: RAW264.7; experiment: Cytotoxicity against mouse RAW264.7 cells assessed as reduction in cell viability at 10 uM measured after 72 hrs by MTS assay; assay type: cell-based; details: raw264.7, 72 h

Sequence of Tyrosine-protein kinase JAK1 (P23458 whole entry, the tested form may be a part): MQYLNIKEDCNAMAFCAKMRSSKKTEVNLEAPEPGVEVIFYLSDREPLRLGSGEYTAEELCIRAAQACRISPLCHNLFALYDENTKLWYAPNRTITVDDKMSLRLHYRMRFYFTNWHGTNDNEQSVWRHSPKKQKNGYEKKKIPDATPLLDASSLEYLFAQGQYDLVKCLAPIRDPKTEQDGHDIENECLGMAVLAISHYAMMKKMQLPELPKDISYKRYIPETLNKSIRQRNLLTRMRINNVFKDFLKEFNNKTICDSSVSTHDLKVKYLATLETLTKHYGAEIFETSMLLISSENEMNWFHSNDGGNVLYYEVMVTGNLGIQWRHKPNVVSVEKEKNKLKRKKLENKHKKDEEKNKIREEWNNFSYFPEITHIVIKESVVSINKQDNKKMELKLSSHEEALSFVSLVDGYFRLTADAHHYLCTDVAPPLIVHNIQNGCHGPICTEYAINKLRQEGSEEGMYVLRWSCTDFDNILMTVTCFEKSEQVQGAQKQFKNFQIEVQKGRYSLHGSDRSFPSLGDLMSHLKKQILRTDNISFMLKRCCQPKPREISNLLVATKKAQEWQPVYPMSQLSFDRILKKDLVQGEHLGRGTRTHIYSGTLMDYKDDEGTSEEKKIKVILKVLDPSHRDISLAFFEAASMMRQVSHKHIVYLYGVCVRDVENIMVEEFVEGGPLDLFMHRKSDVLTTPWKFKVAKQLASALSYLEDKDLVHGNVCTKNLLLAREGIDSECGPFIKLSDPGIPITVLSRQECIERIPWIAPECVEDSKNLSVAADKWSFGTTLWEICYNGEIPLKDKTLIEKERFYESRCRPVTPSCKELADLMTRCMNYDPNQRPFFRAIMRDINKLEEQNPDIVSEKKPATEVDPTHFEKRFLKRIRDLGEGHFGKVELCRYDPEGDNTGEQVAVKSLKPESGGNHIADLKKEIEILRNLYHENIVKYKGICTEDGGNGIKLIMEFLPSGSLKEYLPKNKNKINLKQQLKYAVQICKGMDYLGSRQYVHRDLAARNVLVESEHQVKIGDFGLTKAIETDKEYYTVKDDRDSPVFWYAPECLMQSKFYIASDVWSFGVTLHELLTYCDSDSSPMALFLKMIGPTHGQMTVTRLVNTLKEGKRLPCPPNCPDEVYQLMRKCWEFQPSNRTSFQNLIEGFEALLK
Sequence of Tyrosine-protein kinase JAK2 (O60674 whole entry): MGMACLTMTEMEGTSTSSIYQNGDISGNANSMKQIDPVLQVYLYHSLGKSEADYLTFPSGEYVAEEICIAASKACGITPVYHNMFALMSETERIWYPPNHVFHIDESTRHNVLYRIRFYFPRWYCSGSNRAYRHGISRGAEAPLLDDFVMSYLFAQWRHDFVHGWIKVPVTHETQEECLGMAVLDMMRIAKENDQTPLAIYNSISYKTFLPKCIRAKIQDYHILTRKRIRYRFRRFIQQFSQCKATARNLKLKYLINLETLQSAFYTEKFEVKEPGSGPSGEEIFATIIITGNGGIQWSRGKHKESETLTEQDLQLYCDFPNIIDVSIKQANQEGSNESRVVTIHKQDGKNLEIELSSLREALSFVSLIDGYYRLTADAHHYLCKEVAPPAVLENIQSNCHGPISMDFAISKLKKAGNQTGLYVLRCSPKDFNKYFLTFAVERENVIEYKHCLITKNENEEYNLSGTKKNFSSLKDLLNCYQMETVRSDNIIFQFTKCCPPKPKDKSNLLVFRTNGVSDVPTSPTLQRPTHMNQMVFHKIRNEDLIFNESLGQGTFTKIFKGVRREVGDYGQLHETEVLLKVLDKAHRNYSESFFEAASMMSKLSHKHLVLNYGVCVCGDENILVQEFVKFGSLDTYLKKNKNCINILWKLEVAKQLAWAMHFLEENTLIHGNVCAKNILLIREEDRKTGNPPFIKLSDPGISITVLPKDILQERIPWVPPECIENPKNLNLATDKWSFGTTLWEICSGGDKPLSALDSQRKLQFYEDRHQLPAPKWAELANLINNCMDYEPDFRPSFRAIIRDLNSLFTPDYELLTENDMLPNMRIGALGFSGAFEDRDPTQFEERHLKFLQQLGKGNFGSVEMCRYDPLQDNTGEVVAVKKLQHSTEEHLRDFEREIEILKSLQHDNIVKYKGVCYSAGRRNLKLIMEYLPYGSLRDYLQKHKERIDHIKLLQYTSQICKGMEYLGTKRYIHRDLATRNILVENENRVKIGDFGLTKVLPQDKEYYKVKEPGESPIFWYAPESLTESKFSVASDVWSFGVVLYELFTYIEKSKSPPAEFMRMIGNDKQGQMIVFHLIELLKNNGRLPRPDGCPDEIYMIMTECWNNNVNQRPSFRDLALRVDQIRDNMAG
Sequence of Non-receptor tyrosine-protein kinase TYK2 (P29597 whole entry, the tested form may be a part): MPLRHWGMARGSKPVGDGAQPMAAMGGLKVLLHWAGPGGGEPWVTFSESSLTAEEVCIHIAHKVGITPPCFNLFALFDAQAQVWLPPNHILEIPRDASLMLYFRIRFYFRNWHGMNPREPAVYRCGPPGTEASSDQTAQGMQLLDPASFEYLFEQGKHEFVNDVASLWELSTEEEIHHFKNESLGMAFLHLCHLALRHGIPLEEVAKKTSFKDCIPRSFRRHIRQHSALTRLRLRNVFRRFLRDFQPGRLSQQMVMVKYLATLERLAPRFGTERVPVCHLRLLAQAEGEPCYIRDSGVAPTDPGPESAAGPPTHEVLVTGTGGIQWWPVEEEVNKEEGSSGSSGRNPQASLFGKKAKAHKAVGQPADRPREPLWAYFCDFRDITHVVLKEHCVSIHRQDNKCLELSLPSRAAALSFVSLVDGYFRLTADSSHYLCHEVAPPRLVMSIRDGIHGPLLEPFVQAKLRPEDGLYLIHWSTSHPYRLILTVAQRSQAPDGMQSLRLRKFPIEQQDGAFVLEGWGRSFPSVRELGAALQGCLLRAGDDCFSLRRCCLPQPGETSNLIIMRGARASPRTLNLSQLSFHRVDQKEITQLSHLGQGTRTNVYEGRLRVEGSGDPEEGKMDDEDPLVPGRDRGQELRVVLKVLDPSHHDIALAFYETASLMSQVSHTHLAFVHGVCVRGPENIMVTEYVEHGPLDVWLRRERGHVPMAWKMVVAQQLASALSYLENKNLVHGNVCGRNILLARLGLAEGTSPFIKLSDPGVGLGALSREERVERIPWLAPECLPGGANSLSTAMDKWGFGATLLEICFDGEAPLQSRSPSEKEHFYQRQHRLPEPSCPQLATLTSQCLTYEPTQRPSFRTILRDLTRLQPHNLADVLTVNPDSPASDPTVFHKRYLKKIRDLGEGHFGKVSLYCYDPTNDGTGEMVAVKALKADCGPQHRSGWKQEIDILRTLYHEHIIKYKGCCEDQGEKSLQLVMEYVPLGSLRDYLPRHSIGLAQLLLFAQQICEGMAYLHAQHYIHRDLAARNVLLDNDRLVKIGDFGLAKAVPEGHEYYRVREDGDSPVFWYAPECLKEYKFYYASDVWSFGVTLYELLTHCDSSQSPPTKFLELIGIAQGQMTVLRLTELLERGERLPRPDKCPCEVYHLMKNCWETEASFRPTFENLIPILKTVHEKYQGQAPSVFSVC

IC50 [1] [nM]	IC50 [2] [nM]	IC50 [3] [nM]	IC50 [4] [nM]	inhibition [5]	inhibition [6]	SMILES	Activity [7]	Activity [8]	Activity [9]
840	138					C=CC(=O)Nc1cccc(-c2cc(Nc3cnn(CC(=O)NC)c3)ncn2)c1			
2680	86	1870	1460			COCCn1cc(Nc2cc(-c3ccc(NC(=O)CC#N)cc3)ncn2)cn1			
961	112		1570			C=CC(=O)Nc1ccc(-c2cc(Nc3ccc(N4CCOCC4)cc3)ncn2)cc1			
	33	2650	2790			C/C=C/C(=O)Nc1cccc(-c2ccnc(Nc3ccc(N4CCOCC4)cc3)n2)c1			
1860	170		734			N#CCC(=O)Nc1cccc(-c2cc(Nc3ccc(N4CCOCC4)cc3)ncn2)c1			
	92		1110			C/C=C/C(=O)Nc1cccc(-c2cc(Nc3cnn(CC(=O)NC)c3)ncn2)c1			
586	375					C/C=C/C(=O)NCC(=O)Nc1cccc(-c2cc(Nc3ccc(N4CCOCC4)cc3)ncn2)c1			
2230	152	> 3000	216			N#CCC(=O)Nc1cccc(-c2ccnc(Nc3ccc(N4CCOCC4)cc3)n2)c1			
322	65	2260	587			COCCn1cc(Nc2cc(-c3cccc(NC(=O)CC#N)c3)ncn2)cn1			
568	101		2850			C=CC(=O)Nc1cccc(-c2cc(Nc3cnn(CCOC)c3)ncn2)c1			
1430	253		309			N#CCC(=O)NCC(=O)Nc1cccc(-c2cc(Nc3ccc(N4CCOCC4)cc3)ncn2)c1			
854	145					Cn1cc(Nc2cc(-c3cccc(NC(=O)CC#N)c3)ncn2)cn1			
433		> 3000				N#CCC(=O)Nc1ccc(-c2ccnc(Nc3ccc(N4CCOCC4)cc3)n2)cc1			
1520	567		2760			C/C=C/C(=O)Nc1cccc(-c2cc(Nc3cnn(C)c3)ncn2)c1			
2440	221		2810			C/C=C/C(=O)Nc1cccc(-c2cc(Nc3cnn(CCO)c3)ncn2)c1			
899	67		1890			C/C=C/C(=O)Nc1cccc(-c2cc(Nc3cnn(CCN(C)C)c3)ncn2)c1			
2880		> 3000	2130			C/C=C/C(=O)Nc1cccc(-c2cc(Nc3ccc(N4CCOCC4)cc3)ncn2)c1			
354	103		> 3000			C=CC(=O)NCC(=O)Nc1cccc(-c2cc(Nc3ccc(N4CCOCC4)cc3)ncn2)c1			
528	78					N#CCC(=O)Nc1ccc(-c2cc(Nc3ccc(N4CCOCC4)cc3)ncn2)cc1			

IC50 [1] [nM]	IC50 [2] [nM]	IC50 [3] [nM]	IC50 [4] [nM]	inhibition [5]	inhibition [6]	SMILES	Activity [7]	Activity [8]	Activity [9]
1660	67	> 3000	> 3000			C=CC(=O)Nc1ccc(-c2cc(Nc3cnn(CCOC)c3)ncn2)cc1			
1150	6.1	> 3000	1410	Active	Active	C/C=C/C(=O)Nc1ccc(-c2ccnc(Nc3ccc(N4CCOCC4)cc3)n2)cc1	Non-Toxic	Non-Toxic	Non-Toxic
657	303		2240			C=CC(=O)Nc1cccc(-c2cc(Nc3cnn(C)c3)ncn2)c1			
1440	14	> 3000	1980			C/C=C/C(=O)Nc1ccc(-c2ccnc(Nc3cnn(CCOC)c3)n2)cc1			
	599		2590			C=CC(=O)Nc1cccc(-c2cc(Nc3cnn(CCO)c3)ncn2)c1			
1290	29	> 3000	2580			C/C=C/C(=O)Nc1cccc(-c2cc(Nc3cnn(CCOC)c3)ncn2)c1			
45	108		886			C/C=C/C(=O)NCC(=O)Nc1cccc(-c2cc(Nc3cnn(CCOC)c3)ncn2)c1			
1540	243		1140			N#CCC(=O)Nc1cccc(-c2cc(Nc3cnn(CCO)c3)ncn2)c1			
56	66		1540			C=CC(=O)NCC(=O)Nc1cccc(-c2cc(Nc3cnn(CCOC)c3)ncn2)c1			
> 3000	127		2730			CNC(=O)Cn1cc(Nc2cc(-c3cccc(NC(=O)CNC(=O)CC#N)c3)ncn2)cn1			
2120	30	2440	1800			C=CC(=O)Nc1cccc(-c2ccnc(Nc3ccc(N4CCOCC4)cc3)n2)c1			
1100	55	2870	1290			C=CC(=O)Nc1cccc(-c2ccnc(Nc3cnn(CCOC)c3)n2)c1			
183	24	2500				COCCn1cc(Nc2nccc(-c3ccc(NC(=O)CC#N)cc3)n2)cn1			
89	95		69			Cn1cc(Nc2cc(-c3cccc(NC(=O)CNC(=O)CC#N)c3)ncn2)cn1			
731	309		> 3000			C=CC(=O)Nc1cccc(-c2cc(Nc3cnn(CCN(C)C)c3)ncn2)c1			
2760	76					C/C=C/C(=O)Nc1ccc(-c2cc(Nc3cnn(CCOC)c3)ncn2)cc1			
321	99		2150			C/C=C/C(=O)Nc1ccc(-c2cc(Nc3ccc(N4CCOCC4)cc3)ncn2)cc1			
1110	183		2040			C=CC(=O)Nc1cccc(-c2cc(Nc3ccc(N4CCOCC4)cc3)ncn2)c1			
